“And” between values parts separate entries of the source, which are not always exact repeats. Identical values can stand only once. Like-named read-outs stand apart in the source and are kept apart here.
Columns and labels:
[1] = tested on: SARS-CoV-2 spike protein–mediated cell-cell fusion (B.1.617); type: cell-based; conditions: 48 h
[2] = tested on: SARS-CoV-2 replicon; assay: microbe, parasite or virus in culture; type: cell-based
[3] = tested on: SARS-CoV-2 strain USA-WA1/2020; type: in vivo, mouse
[4] = tested on: SARS-CoV-2; type: cell-based; conditions: for percentage genome copy number relative to DMSO: 48 h, replicates
[5] = tested on: SARS-CoV-2 (Wuhan strain); type: cell-based; conditions: replicates
[6] = Fifty MPK twice daily; cited from earlier work
[7] = tested on: SARS-CoV-2-nLUC; type: cell-based; conditions: Nirmatrelvir 0 uM, sheet S3B, replicates
[8] = tested on: SARS-CoV-2 spike protein–mediated cell-cell fusion (B.1.315); type: cell-based; conditions: B.1.315 (printed), 48 h
[9] = tested on: Calu3 cells; conditions: Fig 1F
[10] = tested on: SARS-CoV-2-WA; type: in vivo, mouse; conditions: 50 MPK oral gavage twice daily; day 2
[11] = tested on: VSV-SARS-CoV-2-S pseudovirus; assay: microbe, parasite or virus in culture; type: cell-based; conditions: for EC50: Pseudovirus
[12] = tested on: SARS-CoV-2-nLUC; assay: microbe, parasite or virus in culture; type: cell-based; conditions: for viral inhibition (EC50 curve data): Huh7A2T2, log[Lonafarnib]; for Replication: LNF
[13] = tested on: SARS-CoV-2; type: cell-based; conditions: for percentage replication relative to untreated, infected control: LNF 10 μM
[14] = tested on: SARS-CoV-2 BA.4.6 (Omicron); type: cell-based; conditions: VeroE6, 10 μM LNF, 24 h, DMSO = 100%
[15] = tested on: SARS-CoV-2; assay: Virus-induced cytopathic effect (CPE) in VeroE6; type: cell-based
[16] = Pharmacokinetics after single IP administration; conditions: K18-hACE2(Tg) C57Bl/6J, mouse, 40 mg/kg; for Kp / concentration at 24 h / half-life: in vivo, single IP; for Kp: AUC ratio (Tissue/PL); for concentration at 24 h: C24h
[17] = in vitro; conditions: human
[18] = tested on: lysosomal compartment; assay: LysoTracker staining of VeroTA6 cells
Procedure: (A) VeroTA6 cells were seeded
post treatment, the cells were stained with lysotracker (Thermofisher, L7528) and visualized under
the microscope (left). The fluorescence intensity was captured and quantified for each treatment
B), the significance was calculated using one-way ANOVA with Dunnett’s test with multiple
comparison to the DMSO control, and the P values are depicted as ns for P>0.05, ** for P <0.01,

[19] = tested on: SARS-CoV-2 spike protein–mediated cell-cell fusion (BA.1); type: cell-based; conditions: 48 h
[20] = tested on: SARS-CoV-2-WA; type: in vivo, mouse; conditions: 50 MPK oral gavage twice daily
[21] = in vitro; conditions: human; remark: listed apart in the source
[22] = in vitro; conditions: human; remark: listed apart in the source
[23] = tested on: SARS-CoV-2 strain USA-WA1/2020; type: in vivo, mouse; remark: listed apart in the source

SMILES: NC(=O)N1CCC(CC(=O)N2CCC([C@H]3c4ncc(Br)cc4CCc4cc(Cl)cc(Br)c43)CC2)CC1 [LNF, lonafarnib]
- relative luciferase signals ([1]; Conc-mM 0.3 (printed)): 89.139 and 98.5081 and 88.3035 and 100.955
- relative luciferase signals ([1]; Conc-mM 1 (printed)): 86.0359 and 78.2183 and 102.626 and 94.5695
- relative luciferase signals ([1]; Conc-mM 3 (printed)): 65.1493 and 69.6847 and 66.5219 and 76.0103
- relative luciferase signals ([1]; Conc-mM 10 (printed)): 35.8018 and 38.2651 and 35.7143 and 29.2527
- EC50 [2]: 7.8 µM
- Inhibition [2]: 99.8867
- Inhibition ([2]; Log[LNF} mM 1): 58.6507 and 68.927 and 62.2766 and 74.1393
- EC50 ([2]; Severe acute respiratory syndrome coronavirus 2, Huh7.5, 24 h): 7.88 µM
- Histopathology Score ([3]; Day 2, individual animals): 2 (2×) and 1 and 0.5 and 1.5 (3×) and 0 (3×)
- Histopathology Score ([3]; Day 5, individual animals): 0.5 (3×) and 1 (4×) and 2.5 and 1.5 and 0
- lung histopathology score vs vehicle ([3]; day 5): significantly lower histopathology score
- reduction of viral genome copy number in infected cells ([4]; 10 μM, VeroE6 and Calu3): more than 90%
- percentage genome copy number relative to DMSO ([4]; Fig 1D, 5 mM (printed)): 15.7327% and 8.267% and 4.447%
- percentage genome copy number relative to DMSO ([4]; Fig 1D, 10 mM (printed)): 0.3388% and 0.169% and 0.1887%
- percentage genome copy number relative to DMSO ([4]; Fig 1E, 5 mM (printed)): 1.7284% and 12.0506% and 10.6523% and 4.939%
- percentage genome copy number relative to DMSO ([4]; Fig 1E, 10 mM (printed)): 0.1445% and 0.1282% and 0.2571% and 0.1291%
- percentage of N-positive cells relative to DMSO ([5]; Fig 1B, 5 mM (printed)): 45.291% and 39.2779% and 27.7255% and 32.1523% and 27.1799% and 44.2583% and 28.0879%
- percentage of N-positive cells relative to DMSO ([5]; Fig 1B, 10 mM (printed)): 6.293% and 7.566% and 7.349% and 6.272% and 7.2903% and 7.5535% and 6.442%
- percentage of N-positive cells relative to DMSO ([5]; Fig 1C, 5 mM (printed)): 10.1344% and 5.318% and 6.858% and 5.707% and 14.6837% and 5.046% and 43.0964%
- percentage of N-positive cells relative to DMSO ([5]; Fig 1C, 10 mM (printed)): 4.886% and 4.575% and 6.603% and 7.209% and 6.0224% and 5.548% and 4.54%
- toxicity in preclinical mouse studies [6]: without any toxicity
- Response ([7]; Lonafarnib 0.15625 uM): 2.22 and 4.213 and 2.074
- Response ([7]; Lonafarnib 0.3125 uM): 1.244 and 2.405 and 2.249
- Response ([7]; Lonafarnib 0.625 uM): -2.027 and 1.3173 and 0.3833
- Response ([7]; Lonafarnib 1.25 uM): 5.206 and 5.033 and 2.62
- Response ([7]; Lonafarnib 2.5 uM): 26.488 and 26.5645 and 16.3468
- Response ([7]; Lonafarnib 5 uM): 76.2414 and 75.9942 and 62.6493
- relative luciferase signals ([8]; Conc-mM 0.3 (printed)): 107.391 and 104.235 and 80.412 and 106.736
- relative luciferase signals ([8]; Conc-mM 1 (printed)): 99.0641 and 83.1761 and 82.6205 and 92.2492
- relative luciferase signals ([8]; Conc-mM 3 (printed)): 65.2189 and 57.2378 and 55.5623 and 61.7046
- relative luciferase signals ([8]; Conc-mM 10 (printed)): 36.5792 and 34.1792 and 24.08 and 33.4344
- CC50 [9]: > 30 µM
- lung viral titer [10]: significantly lower viral titers in the lung
- Max % [11]: 100.0%
- EC50 ([11]; Calu-3, 24 h, 24 h, read-out: EC50): 3.17 µM
- EC50 ([11]; Huh-7, 24 h, 24 h, read-out: EC50): 4.16 µM
- EC50 ([11]; Huh-7, read-out: EC50): 4.2 µM
- EC50 ([11]; read-out: EC50 values, range over cell lines): 1.5 to 4.16 µM
- EC50 ([11]; read-out: EC50): 3.3 µM
- selectivity index (SI = CC50/EC50) [12]: greater than 10
- viral inhibition (EC50 curve data) ([12]; μM 0.39794, 24 h): 31.0378 and 31.6733 and 41.1788 and 40.0144
- viral inhibition (EC50 curve data) ([12]; μM 1, 24 h): 85.1292 and 83.5424 and 87.1345 and 86.5675
- Replication ([12]; Log[LNF} mM 0.09691): 60.948 and 56.887 and 64.8083
- Replication ([12]; Log[LNF} mM 0.39794): 44.056 and 34.731 and 47.009
- Replication ([12]; Log[LNF} mM 1): 12.4102 and 12.97 and 12.6676
- Replication ([12]; Log[LNF} mM -0.522879): 64.2793 and 76.4681 and 101.013
- EC50 ([12]; Severe acute respiratory syndrome coronavirus 2, 24 h, Huh7.5A2T2, 24 h, Fig 1G, read-out: EC50): 3.46 µM
- EC50 ([12]; Severe acute respiratory syndrome coronavirus 2, 24 h, VeroE6T2, 24 h, Fig 1G, read-out: EC50): 2.24 µM
- EC50 ([12]; Severe acute respiratory syndrome coronavirus 2, Calu-3, 24 h, Calu3, 24 h, Fig 1G, read-out: EC50): 3.11 µM
- EC50 ([12]; Severe acute respiratory syndrome coronavirus 2, Vero C1008, 24 h, VeroE6, 24 h, Fig 1G, Fig 5B, read-out: EC50): 2.03 µM
- EC50 ([12]; Severe acute respiratory syndrome coronavirus 2, VeroE6, Huh7.5A2T2, VeroE6T2, Calu3, read-out: EC50 values, range over cell lines): 2.03 to 3.46 µM
- EC50 ([12]; VeroE6, 24 h, Fig 1G, Fig 5B, read-out: EC50): 2 µM
- time-of-addition result [13]: high efficacy of LNF even if the drug was added 4–24 hours after infection
- effect on early events of viral infection ([13]; Calu3, 10 μM): little or no effect on the early events of viral infection
- effect when drug present during an initial period of viral infection ([13]; VeroE6, 10 μM): 50%
- percentage replication relative to untreated, infected control ([13]; VeroE6, drug present (0,4) h): 51.9274% and 49.1443% and 50.2213% and 50.0245% and 32.7935% and 31.4407% and 36.9633% and 35.1922%
- percentage replication relative to untreated, infected control ([13]; VeroE6, drug present (0,24) h): 1.998% and 1.949% and 1.813% and 1.81% and 1.891% and 1.817% and 1.711% and 1.724%
- percentage replication relative to untreated, infected control ([13]; VeroE6, drug present (2,4) h): 73.914% and 71.0289% and 54.3207% and 56.213% and 71.519% and 69.7874% and 67.1461% and 65.4707%
- percentage replication relative to untreated, infected control ([13]; VeroE6, drug present (2,24) h): 3.962% and 4.023% and 3.69% and 3.889% and 3.6% and 3.5757% and 3.292% and 3.351%
- percentage replication relative to untreated, infected control ([13]; VeroE6, drug present (4,24) h): 4.215% and 4.26% and 5.337% and 5.659% and 5.734% and 5.806% and 3.6315% and 3.627%
- percentage replication relative to untreated, infected control ([13]; VeroE6, drug present (-2,0) h): 98.397% and 97.5913% and 93.062% and 94.6733% and 95.1896% and 94.1548% and 95.9294% and 95.558%
- percentage replication relative to untreated, infected control ([13]; VeroE6, drug present (-2,2) h): 55.8703% and 55.9821% and 50.6506% and 51.7567% and 51.3569% and 50.1515% and 51.6639% and 51.979%
- percentage replication relative to untreated, infected control ([13]; VeroE6, drug present (-2,4) h): 43.6671% and 43.2347% and 41.1828% and 42.7136% and 40.9571% and 40.8036% and 42.923% and 42.3078%
- percentage replication relative to untreated, infected control ([13]; VeroE6, drug present (-2,24) h): 1.731% and 1.694% and 2.365% and 2.435% and 2.361% and 2.315% and 1.913% and 1.91%
- % Genome [14]: 1.73% and 1.25% and 0.58%
- effect on virus-induced CPE [15]: rescued the infected cells from virus-induced CPE
- AUC(0-inf) ([16]; brain): 29 µM·h
- Cmax ([16]; brain): 1.46 µM
- Tmax ([16]; brain): 7 h
- AUC(0-inf) ([16]; heart): 987 µM·h
- Cmax ([16]; heart): 94.1 µM
- Tmax ([16]; heart): 0.5 h
- Kp ([16]; Brain): 0.12
- Kp ([16]; Heart): 3.9
- Kp ([16]; Kidney): 2.8
- Kp ([16]; Liver): 12
- Kp ([16]; Lung): 3.1
- concentration at 24 h ([16]; Brain): 0.36 µM
- concentration at 24 h ([16]; Heart): 11.4 µM
- concentration at 24 h ([16]; Kidney): 8.24 µM
- concentration at 24 h ([16]; Liver): 40.3 µM
- concentration at 24 h ([16]; Lung): 8.17 µM
- concentration at 24 h ([16]; Plasma): 2.76 µM
- half-life ([16]; t1/2, Brain): 8.3 h
- half-life ([16]; t1/2, Heart): 10.1 h
- half-life ([16]; t1/2, Kidney): 9 h
- half-life ([16]; t1/2, Liver): 10.7 h
- half-life ([16]; t1/2, Lung): 8.7 h
- half-life ([16]; t1/2, Plasma): 8.8 h
- AUC(0-inf) ([16]; kidney): 699 µM·h
- Cmax ([16]; kidney): 46 µM
- Tmax ([16]; kidney): 1 h
- AUC(0-inf) ([16]; liver): 3060 µM·h
- Cmax ([16]; liver): 224 µM
- Tmax ([16]; liver): 0.25 h
- AUC(0-inf) ([16]; lung): 788 µM·h
- Cmax ([16]; lung): 93.5 µM
- Tmax ([16]; lung): 0.25 h
- AUC(0-inf) ([16]; plasma): 253 µM·h
- Cmax ([16]; plasma): 63.3 µM
- Tmax ([16]; plasma): 0.08 h
- CC50 [17]: > 30 µM
- LysoTracker fluorescence intensity ([18]; VeroTA6, 10 μM, 30 min): significantly higher fluorescence intensity
- Lysotracker ([18]; sheet S5A, individual measurements): 1000.41 and 1078.15 and 1357.74 and 1025.55 and 1236.53 and 1375.69 and 1111.13 and 939.183 and 1788.26 and 2301.51 and 898.567 and 730.339 and 642.99 and 1893.93 and 696.429 and 1937.99 and 1199.36 and 1178.39 and 1146.54 and 1719.14 and 1470.88 and 572.253 and 1006.33
- relative luciferase signals ([19]; 0.3 (printed)): 93.9702 and 58.6533 and 53.4918 and 75.0181
- relative luciferase signals ([19]; 1 (printed)): 108.194 and 73.2387 and 73.7551 and 89.5366
- lung histopathology score vs vehicle [20]: significantly lower histopathology score
- CC50 [21]: > 30 µM
- CC50 [22]: > 30 µM
- Clinical Score ([23]; Day 5, individual animals): 1 (3×) and 0 (7×)
- composite clinical score ([23]; LNF 40 MPK IP, RDV 25 MPK SC, twice daily): much improved disease parameters
